Test results as given in patent US8703805B2 (Exelixis Patent Company LLC, priority 2005, dated 2014).

System: LXRα and/or LXRβ
Assay: LXR/LXRE co-transfection assay (luciferase reporter, CV-1 cells)
Type: cell-based, human
Settings: IC50 or EC50 for LXR (LXRα and/or LXRβ, not distinguished), tested as described in Example 109, CV-1 cells
Method in brief: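 Luciferase readout after 20 h compound exposure at 37 °C in CV-1 cells transiently expressing human LXRα or LXRβ with RXRα and an LXRE-driven reporter. Dose-response over 8 points at ½-log spacing, 4 wells each, fitted for EC50/IC50; values average ≥3 independent experiments, efficacy as % of high control.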

| Molecule | EC50 [nM] |
| --- | --- |
| CS(=O)(=O)NC(=O)c1cc(-c2ccc(-c3cccc(S(C)(=O)=O)c3)s2)n(-c2ccccc2C(F)(F)F)n1 [Example 1196, N-(methylsulfonyl)-5-{5-[3-(methylsulfonyl)phenyl]-2-thienyl}-1-[2-(trifluoromethyl)phenyl]-1H-pyrazole-3-carboxamide] | 1000 to 10000 |
| COC(=S)c1cc(-c2ccc(-c3cccc(S(C)(=O)=O)c3)s2)n(-c2ccccc2C(F)(F)F)n1 [Example 1179, O-methyl 5-{5-[3-(methylsulfonyl)phenyl]-2-thienyl}-1-[2-(trifluoromethyl)phenyl]-1H-pyrazol-3-carbothioate] | 1000 to 10000 |
| 2-[1-(2-chlorophenyl)-5-{5-[3-(methylsulfonyl)phenyl]pyridin-2-yl}-1H-pyrazol-3-yl]propan-2-ol [Example 79] | > 10000 |
| COC(=O)c1cc(-c2ccccc2Cl)n(-c2ccc(-c3cccc(S(C)(=O)=O)c3)cc2)n1 [Example 1218, methyl 5-(2-chlorophenyl)-1-[3′-(methylsulfonyl)biphenyl-4-yl]-1H-pyrazole-3-carboxylate] | < 1000 |
| CC(C)(O)c1cc(-c2ccc(-c3cccc(S(C)(=O)=O)c3)cc2)n(-c2cnccc2C(F)(F)F)n1 [Example 108, 2-(5-(3′-(methylsulfonyl)biphenyl-4-yl)-1-(4-(trifluoromethyl)pyridin-3-yl)-1H-pyrazol-3-yl)propan-2-ol] | 1000 to 10000 |
| CC(=O)c1cccc(-c2ccc(-c3cc(C(C)(C)O)nn3-c3ccccc3Cl)s2)c1 [Example 755, 1-(3-{5-[1-(2-chlorophenyl)-3-(1-hydroxy-1-methylethyl)-1H-pyrazol-5-yl]-2-thienyl}phenyl)ethanone] | 1000 to 10000 |
| CC(C)S(=O)(=O)c1cccc(-c2ccc(-c3cc(C(F)(F)F)nn3-c3ccccc3C(F)(F)F)cc2)c1 [Example 1168, 5-{3′-[(1-methylethyl)sulfonyl)biphenyl-4-yl}-3-(trifluoromethyl)-1-[2-(trifluoromethyl)phenyl]-1H-pyrazole] | < 1000 |
| CS(=O)(=O)c1cccc(-c2ccc(-c3cc(C4(O)CCCC4)nn3-c3ccccc3Cl)s2)c1 [Example 1228, 1-[1-(2-chlorophenyl)-5-{5-[3-(methylsulfonyl)phenyl]-2-thienyl}-1H-pyrazol-3-yl]cyclopentanol] | < 1000 |
| CS(=O)(=O)c1cccc(Oc2ccc(-c3cc(C(F)(F)F)nn3-c3ccccc3Cl)cc2)c1 [Example 68, 1-(2-chlorophenyl)-5-(4-{[3-(methylsulfonyl)phenyl]oxy}phenyl)-3-(trifluoromethyl)-1H-pyrazole] | < 1000 |
| CN(CC(N)=O)C(=O)c1cc(-c2ccc(-c3cccc(S(C)(=O)=O)c3)s2)n(-c2ccccc2Cl)n1 [Example 724, N-(2-amino-2-oxoethyl)-1-(2-chlorophenyl)-N-methyl-5-{5-[3-(methylsulfonyl)phenyl]-2-thienyl}-1H-pyrazole-3-carboxamide] | 1000 to 10000 |
| COc1ncc(-c2ccc(-c3cc(C(C)(C)O)nn3-c3ccccc3Cl)cc2)cn1 [Example 1291, 2-[1-(2-chlorophenyl)-5-{4-[2-(methyloxy)pyrimidin-5-yl]phenyl}-1H-pyrazol-3-yl]propan-2-ol] | 1000 to 10000 |
| COC(C)(C)c1cc(-c2ccc(-c3cccc(S(C)(=O)=O)c3)s2)n(-c2ccccc2C(F)(F)F)n1 [Example 1189, 3-[1-methyl-1-(methyloxy)ethyl]-5-{5-[3-(methylsulfonyl)phenyl]-2-thienyl}-1-[2-(trifluoromethyl)phenyl]-1H-pyrazole] | < 1000 |
| CS(=O)(=O)c1cccc(-c2ccc(-c3cc(C(=O)Nc4cccc(C(F)(F)F)c4)nn3-c3ccccc3Cl)s2)c1 [Example 1133, 1-(2-chlorophenyl)-5-{5-[3-(methylsulfonyl)phenyl]-2-thienyl}-N-[3-(trifluoromethyl)phenyl]-1H-pyrazole-3-carboxamide] | 1000 to 10000 |
| CC(C)(O)c1cc(-c2ccccc2Cl)n(-c2ccc(-c3cccc(S(C)(=O)=O)c3)cn2)n1 [Example 1233, 2-[5-(2-chlorophenyl)-1-{5-[3-(methylsulfonyl)phenyl]pyridin-2-yl}-1H-pyrazol-3-yl]propan-2-ol] | 1000 to 10000 |
| CC(C)(O)c1cc(-c2ccc(-c3cccc(S(C)(=O)=O)c3)cc2)n(-c2c(Cl)cccc2Cl)n1 [Example 133, 2-(1-(2,6-dichlorophenyl)-5-(3′-(methylsulfonyl)biphenyl-4-yl)-1H-pyrazol-3-yl)propan-2-ol] | < 1000 |
| CC(C)(O)c1nn(-c2ccc(-c3cccc(S(C)(=O)=O)c3)cc2)c(-c2ccccc2Cl)c1Cl [Example 110, 2-(4-chloro-5-(2-chlorophenyl)-1-(3′-(methylsulfonyl)biphenyl-4-yl)-1H-pyrazol-3-yl)propan-2-ol] | < 1000 |
| CS(=O)(=O)c1cccc(-c2ccc(-c3cc(C4(C#N)CC4)nn3-c3ccccc3Cl)s2)c1 [Example 1188, 1-[1-(2-chlorophenyl)-5-{5-[3-(methylsulfonyl)phenyl]-2-thienyl}-1H-pyrazol-3-yl]cyclopropanecarbonitrile] | < 1000 |
| COC(=O)Cc1ccc(-c2ccc(-c3cc(C(F)(F)F)nn3-c3ncccc3C(F)(F)F)s2)c(C)c1 [Example 1153, methyl [3-methyl-4-(5-{3-(trifluoromethyl)-1-[3-(trifluoromethyl)pyridin-2-yl]-1H-pyrazol-5-yl}-2-thienyl)phenyl]acetate] | 1000 to 10000 |
| COC(=O)c1cccc(-c2ccc(-c3cc(C(=O)NCC(F)(F)F)nn3-c3ccccc3Cl)s2)c1 [Example 1275] | 1000 to 10000 |
| CC(C)(O)c1cc(-c2ccc(-c3ccc(C(F)(F)F)cc3Cl)cc2)n(-c2ccccc2Cl)n1 [Example 1288, 2-{1-(2-chlorophenyl)-5-[2′-chloro-4′-(trifluoromethyl)biphenyl-4-yl]-1H-pyrazol-3-yl}propan-2-ol] | 1000 to 10000 |
| COC(=O)CN(C)C(=O)c1cc(-c2ccc(-c3cccc(S(C)(=O)=O)c3)s2)n(-c2ccccc2Cl)n1 [Example 589, methyl N-{[1-(2-chlorophenyl)-5-{5-[3-(methylsulfonyl)phenyl]-2-thienyl}-1H-pyrazol-3-yl]carbonyl}-N-methylglycinate] | < 1000 |
| CC(C)(O)c1cc(-c2ccc(-c3cccc(S(C)(=O)=O)c3)s2)n(-c2ccccc2)n1 [Example 1262, 2-(5-{5-[3-(methylsulfonyl)phenyl]-2-thienyl}-1-phenyl-1H-pyrazol-3-yl)propan-2-ol] | < 1000 |
| CC(C)(O)c1cc(-c2cccc(Cl)c2Cl)n(-c2ccc(-c3cccc(S(C)(=O)=O)c3)cc2Cl)n1 [Example 135, 2-(1-(3-chloro-3′-(methylsulfonyl)biphenyl-4-yl)-5-(2,3-dichlorophenyl)-1H-pyrazol-3-yl)propan-2-ol] | < 1000 |

The next lines start with the values.

| EC50 [nM] | Molecule |
| --- | --- |
| < 1000 | CC(C)(O)c1nn(-c2cccnc2C(F)(F)F)c(-c2ccc(-c3cccc(S(C)(=O)=O)c3)cc2Cl)c1Cl [Example 1387, 2-(4-chloro-5-(3-chloro-3′-(methylsulfonyl)biphenyl-4-yl)-1-(2-(trifluoromethyl)pyridin-3-yl)-1H-pyrazol-3-yl)propan-2-ol] |
| < 1000 | CC(C)(O)c1cc(-c2ccc(-c3cccc(S(C)(=O)=O)c3)s2)n(-c2cccc3c2OC(F)(F)O3)n1 [Example 1342, 2-[1-(2,2-difluoro-1,3-benzodioxol-4-yl)-5-{5-[3-(methylsulfonyl)phenyl]-2-thienyl}-1H-pyrazol-3-yl]propan-2-ol] |
| < 1000 | CCc1ccccc1-n1nc(C(C)(C)O)c(Br)c1-c1ccc(-c2cccc(S(C)(=O)=O)c2)s1 [Example 1358, 2-[4-bromo-1-(2-ethylphenyl)-5-{5-[3-(methylsulfonyl)phenyl]-2-thienyl}-1H-pyrazol-3-yl]propan-2-ol] |
| 1000 to 10000 | CC(C)(O)c1cc(-c2ccc(-c3cccc(S(C)(=O)=O)c3)s2)n(-c2cc(Cl)cc(Cl)c2)n1 [Example 1323, 2-[1-(3,5-dichlorophenyl)-5-{5-[3-(methylsulfonyl)phenyl]-2-thienyl}-1H-pyrazol-3-yl]propan-2-ol] |
| < 1000 | CC(C)(O)c1nn(-c2ccc(-c3cccc(S(C)(=O)=O)c3)cc2Cl)c(-c2ccccc2Cl)c1Cl [Example 1423, 2-(4-chloro-1-(3-chloro-3′-(methylsulfonyl)biphenyl-4-yl)-5-(2-chlorophenyl)-1H-pyrazol-3-yl)propan-2-ol] |
| < 1000 | CC(C)(O)c1nn(-c2ccccc2Br)c(-c2ccc(-c3cccc(S(C)(=O)=O)c3)s2)c1Cl [Example 1368, 2-[1-(2-bromophenyl)-4-chloro-5-{5-[3-(methylsulfonyl)phenyl]-2-thienyl}-1H-pyrazol-3-yl]propan-2-ol] |
| < 1000 | Cc1cc(-c2cccc(S(C)(=O)=O)c2)ccc1-n1nc(C(C)(C)O)c(Cl)c1-c1ccccc1C(F)(F)F [Example 1420, 2-(4-chloro-1-(3-methyl-3′-(methylsulfonyl)biphenyl-4-yl)-5-(2-(trifluoromethyl)phenyl)-1H-pyrazol-3-yl)propan-2-ol] |
| < 1000 | CC(C)(O)c1nn(-c2c(Cl)cccc2Cl)c(-c2ccc(-c3cccc(S(C)(=O)=O)c3)s2)c1Cl [Example 1348, 2-[4-chloro-1-(2,6-dichlorophenyl)-5-{5-[3-(methylsulfonyl)phenyl]-2-thienyl}-1H-pyrazol-3-yl]propan-2-ol] |
| 1000 to 10000 | CCOC(=O)COc1cccc(-c2ccc(-c3cc(C(C)(C)O)nn3-c3ccccc3Cl)cc2)c1 [Example 1297, ethyl ({4′-[1-(2-chlorophenyl)-3-(1-hydroxy-1-methylethyl)-1H-pyrazol-5-yl]biphenyl-3-yl}oxy)acetate] |
| < 1000 | CC(C)(O)c1nn(-c2cccc(Cl)c2F)c(-c2ccc(-c3cccc(S(C)(=O)=O)c3)s2)c1Cl [Example 1366, 2-[4-chloro-1-(3-chloro-2-fluorophenyl)-5-{5-[3-(methylsulfonyl)phenyl]-2-thienyl}-1H-pyrazol-3-yl]propan-2-ol] |
